According to patent US11179389B2, “Purine inhibitors of human phosphatidylinositol 3-kinase delta” (Merck Sharp & Dohme Corp., priority 2017, dated 2021):

Experiments:
[1] = molecular target: PI3Kdelta (Homo sapiens (Human), UniProt O00329); experiment: HTRF PI3K biochemical assay, delta isoform; conditions: 0.3 nM enzyme, 100 uM ATP, 5 uM PIP2, form screened per table (Neutral or TFA salt)
Description: (§1) HTRF PI3K Biochemical Assay to Measure Intrinsic Potency of Compound Inhibitors
(§2) The PI3-Kinase biochemical assays were developed to measure the intrinsic potency and compound dependent inhibition of the alpha, beta, delta, and gamma PI3K isoform enzymes. This assay was developed and further optimized from a kit produced by Upstate (Millipore catalog #33-047) (Millipore Sigma. Billerica Mass., USA) and has been configured for high throughput screening (HTS) and structure-activity relationship (SAR) screening. Briefly, this procedure exploits the exquisite specificity and high affinity binding of enzyme reaction […] phosphatidyl(3,4,5)triphosphate (PIP3) to the GRP1 pleckstrin homology (PH) domain to generate the signal. In the absence of PIP3, an HTRF (Homogeneous Time-Resolved Fluorescence energy transfer) complex is formed consisting of europium (Eu)-labeled anti-GST, GSTtagged GRP1-PH domain, biotin-PIP3 (biotinylated-PIP3) and streptavidin conjugated APC (Allophycocyanin). The native PIP3 produced by PI3-Kinase activity disrupts in a competitive manner the biotin-PIP3 from the pleckstrin homology (PH) domain, resulting in the loss of energy transfer (HTRF complex) and a decrease in the signal. The format of this assay is the same for all 4 isoforms of PI3K; the differences lie in the concentration of enzyme used to achieve robust assay window. The alpha, beta, and delta assays are run at 0.5, 1, and 0.3 nM enzymes and the gamma assay is run at 5 nM enzyme. The ATP concentration is 100 uM in the alpha, beta, and delta assays and 50 uM adenosine triphosphate (ATP) in the gamma assay. All reactions are run at 5 uM PIP2.
(§3) Compounds are serially diluted (3-fold in 100% DMSO) across a 384-well polypropylene source plated from column 3 to column 12 and column 13 to column 22, to yield 10 concentration dose response for each test compound. Columns 1, 2, 23 and 24 contain either only DMSO or pharmacological known control inhibitor. Once titrations are made, 2.5 nL of the compounds on 384 well plates are reformatted and transferred by acoustic dispense in quadruplicates to a 1536 assay plate (Greiner) to assay across all four PI3K isoform enzymes.
(§4) The PI3-Kinase biochemical assay was optimized using the HTRF kit provided by Upstate (Millipore). The assay kit contains six reagents: 1) 4×Reaction Buffer; 2) native PIP2 (substrate); 3) Stop (EDTA); 4) Detection Mix A (Streptavidin-APC); 5) Detection Mix B (Eu-labeled Anti-GST plus GST-tagged PH-domain): 6) Detection Mix C. In addition, the following items were obtained or purchased; PI3Kinase (catalog #'s alpha 14-602, beta 14-603, gamma 14-558 and delta 14-604 from Upstate Biotechnology now EMD Millipore, Mahopac, N.Y., USA), dithiothreitol (Sigma-Aldrich Corp. (St. Louis, Mo., USA) Catalog #D-5545), Adenosine-5′ triphosphate (InVitrogen (Waltham, Mass., USA), Cat#AS001 Å), native PIP3 (PI(3,4,5)P3, diC8, H^+, CELLSIGNALS, INC., (Columbus, Ohio, USA) Cat #907) DMSO ((Sigma-Aldrich Corp. (St. Louis. Mo., USA) Catalog #472301).
(§5) PI3Kinase Reaction Buffer is prepared by dilution the stock 1:4 with de-ionized water. DTT (DL-Dithiothreitol), phosphatidylinositol 4,5-bisphosphate (PIP2) and Biotin-PIP3 were added to 1536 assay plate at a final concentration of 5 mM, […] and 25 nM on the day of use. Enzyme addition and compound pre-incubation are initiated by the addition of 1.25 ul of PI3K (at twice its final concentration) in the 1× reaction buffer to all wells using a BioRaptor™. Plates are incubated at room temperature for 15 minutes. Reactions are initiated by addition of 1.25 ul of 2× substrate solution (PIP2 and ATP in 1× reaction buffer) using BioRaptor™. Plates are incubated in humidified chamber at room temperature for one hour. Reactions are quenched by addition of 0.625 uL of stop solution to all wells using the BioRaptor™. […]

[2] = molecular target: PI3Kalpha (Homo sapiens (Human), UniProt P42336); experiment: HTRF PI3K biochemical assay, alpha isoform (for selectivity ratio); conditions: ratio PI3K-alpha IC50 value / PI3K-delta IC50 value
Description: as §1, §2, §3, §4, §5

Chain of PI3Kdelta (O00329 whole entry, canonical isoform): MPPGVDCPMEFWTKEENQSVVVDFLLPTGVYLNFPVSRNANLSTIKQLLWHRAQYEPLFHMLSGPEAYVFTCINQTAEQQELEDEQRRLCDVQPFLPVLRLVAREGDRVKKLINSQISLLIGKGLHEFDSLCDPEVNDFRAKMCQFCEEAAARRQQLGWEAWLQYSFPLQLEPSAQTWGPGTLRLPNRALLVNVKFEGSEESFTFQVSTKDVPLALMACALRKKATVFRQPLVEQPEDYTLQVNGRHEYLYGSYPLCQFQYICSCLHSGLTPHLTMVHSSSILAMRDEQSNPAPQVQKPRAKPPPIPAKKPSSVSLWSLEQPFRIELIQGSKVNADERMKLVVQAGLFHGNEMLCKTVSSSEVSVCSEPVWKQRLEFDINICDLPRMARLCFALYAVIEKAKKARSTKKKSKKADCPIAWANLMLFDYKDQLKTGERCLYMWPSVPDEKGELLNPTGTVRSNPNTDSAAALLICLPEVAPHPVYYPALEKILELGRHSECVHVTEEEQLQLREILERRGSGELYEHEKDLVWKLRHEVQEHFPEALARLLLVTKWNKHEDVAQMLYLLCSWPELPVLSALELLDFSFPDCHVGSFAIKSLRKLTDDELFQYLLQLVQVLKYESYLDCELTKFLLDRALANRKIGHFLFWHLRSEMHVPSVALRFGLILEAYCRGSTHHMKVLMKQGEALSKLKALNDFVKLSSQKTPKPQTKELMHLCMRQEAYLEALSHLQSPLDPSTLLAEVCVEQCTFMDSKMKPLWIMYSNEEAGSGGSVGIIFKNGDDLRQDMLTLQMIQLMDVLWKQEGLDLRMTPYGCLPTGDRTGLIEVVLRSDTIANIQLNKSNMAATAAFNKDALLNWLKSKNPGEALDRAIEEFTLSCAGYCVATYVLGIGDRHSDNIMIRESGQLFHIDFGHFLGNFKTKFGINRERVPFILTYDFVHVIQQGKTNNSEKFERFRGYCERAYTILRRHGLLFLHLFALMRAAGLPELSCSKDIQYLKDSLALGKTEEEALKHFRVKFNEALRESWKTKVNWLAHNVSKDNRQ
Chain of PI3Kdelta (P27986 whole entry partner, canonical isoform): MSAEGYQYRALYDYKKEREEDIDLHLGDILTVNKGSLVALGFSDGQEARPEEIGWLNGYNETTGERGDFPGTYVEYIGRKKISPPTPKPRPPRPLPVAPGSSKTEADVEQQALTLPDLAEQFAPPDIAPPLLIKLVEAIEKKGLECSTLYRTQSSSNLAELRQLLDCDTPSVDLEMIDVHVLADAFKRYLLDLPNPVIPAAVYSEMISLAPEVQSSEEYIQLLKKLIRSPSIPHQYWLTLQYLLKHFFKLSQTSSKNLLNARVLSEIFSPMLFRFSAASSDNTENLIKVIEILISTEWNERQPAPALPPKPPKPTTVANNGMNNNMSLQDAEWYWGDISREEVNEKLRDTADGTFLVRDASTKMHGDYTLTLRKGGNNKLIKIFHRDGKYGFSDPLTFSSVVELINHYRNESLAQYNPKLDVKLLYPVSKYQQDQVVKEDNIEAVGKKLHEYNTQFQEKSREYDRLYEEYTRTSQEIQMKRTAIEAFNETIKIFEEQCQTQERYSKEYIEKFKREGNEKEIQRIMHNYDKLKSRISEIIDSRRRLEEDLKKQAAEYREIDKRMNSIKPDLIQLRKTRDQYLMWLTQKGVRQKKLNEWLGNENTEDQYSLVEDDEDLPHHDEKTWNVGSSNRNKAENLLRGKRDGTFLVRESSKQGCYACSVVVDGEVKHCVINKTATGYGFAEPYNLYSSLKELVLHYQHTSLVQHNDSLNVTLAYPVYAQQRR
Chain of PI3Kalpha (P42336 whole entry, canonical isoform): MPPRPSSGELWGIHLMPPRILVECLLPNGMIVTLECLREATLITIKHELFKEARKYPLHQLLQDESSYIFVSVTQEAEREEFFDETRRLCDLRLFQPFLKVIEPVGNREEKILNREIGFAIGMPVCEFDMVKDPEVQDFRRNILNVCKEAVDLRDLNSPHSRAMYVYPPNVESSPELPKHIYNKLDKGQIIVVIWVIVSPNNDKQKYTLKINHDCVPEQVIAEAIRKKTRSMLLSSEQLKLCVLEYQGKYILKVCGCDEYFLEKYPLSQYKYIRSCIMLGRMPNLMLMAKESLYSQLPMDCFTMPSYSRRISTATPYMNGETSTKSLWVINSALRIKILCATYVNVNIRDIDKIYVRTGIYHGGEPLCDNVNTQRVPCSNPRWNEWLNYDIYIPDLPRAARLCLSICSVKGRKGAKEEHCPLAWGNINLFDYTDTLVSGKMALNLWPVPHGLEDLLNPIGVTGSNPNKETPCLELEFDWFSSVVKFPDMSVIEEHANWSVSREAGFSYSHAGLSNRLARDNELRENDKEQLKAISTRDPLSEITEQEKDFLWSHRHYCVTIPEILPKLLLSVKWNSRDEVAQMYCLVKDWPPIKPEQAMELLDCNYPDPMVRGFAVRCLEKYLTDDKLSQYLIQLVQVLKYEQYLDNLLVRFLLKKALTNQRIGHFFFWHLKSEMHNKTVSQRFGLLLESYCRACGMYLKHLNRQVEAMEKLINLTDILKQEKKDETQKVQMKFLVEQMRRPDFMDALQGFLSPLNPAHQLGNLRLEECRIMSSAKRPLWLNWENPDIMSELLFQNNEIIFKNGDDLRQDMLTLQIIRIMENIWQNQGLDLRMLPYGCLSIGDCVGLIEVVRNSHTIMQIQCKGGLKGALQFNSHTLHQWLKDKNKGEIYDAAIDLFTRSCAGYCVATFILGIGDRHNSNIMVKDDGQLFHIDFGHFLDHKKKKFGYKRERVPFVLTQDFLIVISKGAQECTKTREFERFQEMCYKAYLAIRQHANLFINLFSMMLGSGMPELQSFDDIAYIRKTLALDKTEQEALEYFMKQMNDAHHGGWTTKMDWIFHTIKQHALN
Chain of PI3Kalpha (P27986 whole entry partner, canonical isoform): as the sequence (P27986 whole entry partner, canonical isoform) above

SMILES	IC50 [1] [nM]	Selectivity versus PI3Kalpha [2]
C[C@@H]1CN(c2cnc(C#N)c(-c3cnn(C)c3)n2)CCN1C(=O)N1CC2(COC2)C1 [Compound 1-33, 5-[(3R)-3-methyl-4-(2-oxa-6-azaspiro[3.3]hept-6-ylcarbonyl)piperazin-1-yl]-3-(1-methyl-1H-pyrazol-4-yl)pyrazine-2-carbonitrile]	300	>10
C[C@@H]1CN(c2cnc(C#N)c(-c3cnn(C)c3)n2)CCN1C(=O)NCC1CC1 [Compound 1-34, (2R)-4-[5-cyano-6-(1-methyl-1H-pyrazol-4-yl)pyrazin-2-yl]-N-(cyclopropylmethyl)-2-methylpiperazine-1-carboxamide]	210	>10
CO[C@H]1CCN(C(=O)N2CCN(c3cnc(C#N)c(-c4cnn(C)c4)n3)C[C@H]2C)C1 [Compound 1-35, 5-[(3R)-4-{[(3S)-3-methoxypyrrolidin-1-yl]carbonyl}-3-methylpiperazin-1-yl]-3-(1-methyl-1H-pyrazol-4-yl)pyrazine-2-carbonitrile]	110	>10
COC1CN(C(=O)N2CCN(c3cnc(C#N)c(-c4cnn(C)c4)n3)C[C@H]2C)C1 [Compound 1-36, 5-{(3R)-4-[(3-methoxyazetidin-1-yl)carbonyl]-3-methylpiperazin-1-yl}-3-(1-methyl-1H-pyrazol-4-yl)pyrazine-2-carbonitrile]	160	>10
C[C@@H]1CN(c2cnc(C#N)c(-c3cnn(C)c3)n2)CCN1C(=O)N1CCC1 [Compound 1-37, 5-[(3R)-4-(azetidin-1-ylcarbonyl)-3-methylpiperazin-1-yl]-3-(1-methyl-1H-pyrazol-4-yl)pyrazine-2-carbonitrile]	53	>10
COC(=O)N1CCN(c2cnc(C#N)c(-c3cnn(C)c3)n2)C[C@H]1C [Compound 1-38, methyl (2R)-4-[5-cyano-6-(1-methyl-1H-pyrazol-4-yl)pyrazin-2-yl]-2-methylpiperazine-1-carboxylate]	210	>10
C[C@@H]1C[C@H]1C(=O)N1CCN(c2cnc(C#N)c(-c3cn[nH]c3)n2)C[C@H]1C [Compound 1-39, 5-[(3R)-3-methyl-4-{[(1R,2R)-2-methylcyclopropyl]carbonyl}piperazin-1-yl]-3-(1H-pyrazol-4-yl)pyrazine-2-carbonitrile]	50	>10
